Where “and” joins values, the source holds several entries; their conditions need not be identical. Identical values can stand only once. Toxic doses and inconclusive results are not listed.
Test system: BDF1 mice, P288 leukemia ip, survival T/C
Experiment: NCI In Vivo Anticancer Drug Screen. Data for tumor model P288 Lymphocytic Leukemia (intraperitoneal) in B6D2F1 (BDF1) mice
Conditions: endpoint: survival time, mean or median, higher = longer survival
Experimental: The antitumor activity of compounds was measured in mice bearing transplantable tumors. Survival or tumor size were measured and the results are expressed as the measurement made in the treated group (T) divided by the measurement made in the vehicle treated control group (C). The tumor model used in this assay is P288 Lymphocytic Leukemia (intraperitoneal) in B6D2F1 (BDF1) mice

[1] = dose: 0.5 mg/kg/injection, schedule: Q01DX010 (ip), vehicle: saline
[2] = dose: 1.0 mg/kg/injection, schedule: Q01DX010 (ip), vehicle: saline
[3] = dose: 2.0 mg/kg/injection, schedule: Q01DX010 (ip), vehicle: saline
[4] = dose: 4.0 mg/kg/injection, schedule: Q01DX010 (ip), vehicle: saline
[5] = dose: 25.0 mg/kg/injection, schedule: Q01DX010 (ip), vehicle: saline
[6] = dose: 50.0 mg/kg/injection, schedule: Q01DX010 (ip), vehicle: saline
[7] = dose: 100.0 mg/kg/injection, schedule: Q01DX010 (ip), vehicle: saline
[8] = dose: 3.0 mg/kg/injection, schedule: Q01DX010 (ip), vehicle: saline
[9] = dose: 6.0 mg/kg/injection, schedule: Q01DX010 (ip), vehicle: saline
[10] = dose: 12.0 mg/kg/injection, schedule: Q01DX010 (ip), vehicle: saline
[11] = dose: 3.75 mg/kg/injection, schedule: Q01DX Z (ip), vehicle: carboxymethylcellulose (CMC)
[12] = dose: 6.25 mg/kg/injection, schedule: Q01DX010 (ip), vehicle: saline
[13] = dose: 12.5 mg/kg/injection, schedule: Q01DX010 (ip), vehicle: saline

O=C(Nc1ccc(NC(=O)Nc2cccc(C3=NCCN3)c2)cc1)Nc1cccc(C2=NCCN2)c1
T/C (dose: 60.0 mg/kg/injection, schedule: Q01DX010 (ip), vehicle: saline): 163 % of control and 168 % of control
T/C (dose: 120.0 mg/kg/injection, schedule: Q01DX010 (ip), vehicle: saline): 173 % of control and 210 % of control
T/C (dose: 240.0 mg/kg/injection, schedule: Q01DX010 (ip), vehicle: saline): 221 % of control
T/C (dose: 480.0 mg/kg/injection, schedule: Q01DX010 (ip), vehicle: saline): 152 % of control

O=P1(N(CCCl)CCCl)NCCCO1 (stereo not given)
T/C (dose: 11.3 mg/kg/injection, schedule: Q01DX010 (ip), vehicle: saline): 119 % of control
T/C (dose: 12.5 mg/kg/injection, schedule: Q01DX Z (ip), vehicle: saline): 102 % of control and 106 % of control
T/C (dose: 25.0 mg/kg/injection, schedule: Q01DX Z (ip), vehicle: saline): 113 % of control and 116 % of control
T/C (dose: 45.0 mg/kg/injection, schedule: Q01DX010 (ip), vehicle: saline): 150 % of control and 198 % of control
T/C (dose: 50.0 mg/kg/injection, schedule: Q01DX Z (ip), vehicle: saline): 112 % of control and 113 % of control
T/C (dose: 62.5 mg/kg/injection, schedule: Q01DX Z (ip), vehicle: saline): 124 % of control
T/C (dose: 90.0 mg/kg/injection, schedule: Q01DX010 (ip), vehicle: saline): 158 % of control
T/C (dose: 100.0 mg/kg/injection, schedule: Q01DX Z (ip), vehicle: saline): 152 % of control
T/C (dose: 125.0 mg/kg/injection, schedule: Q01DX Z (ip), vehicle: saline): 113 % of control
T/C (dose: 180.0 mg/kg/injection, schedule: Q01DX010 (ip), vehicle: saline): 91 % of control
T/C (dose: 200.0 mg/kg/injection, schedule: Q01DX Z (ip), vehicle: saline): 86 % of control and 95 % of control

NC(=O)N(CCCl)N=O
T/C [1]: 205 % of control
T/C [2]: 222 % of control
T/C (dose: 1.0 mg/kg/injection, schedule: Q01DX Z (ip), vehicle: carboxymethylcellulose (CMC)): 105 % of control
T/C [3]: 166 % of control
T/C (dose: 2.0 mg/kg/injection, schedule: Q01DX Z (ip), vehicle: carboxymethylcellulose (CMC)): 98 % of control
T/C (dose: 4.0 mg/kg/injection, schedule: Q01DX Z (ip), vehicle: carboxymethylcellulose (CMC)): 104 % of control
T/C (dose: 8.0 mg/kg/injection, schedule: Q01DX Z (ip), vehicle: carboxymethylcellulose (CMC)): 152 % of control and 210 % of control

Nc1nc(F)nc2c1ncn2C1OC(CO)C(O)C1O (stereo not given)
T/C [1]: 111 % of control
T/C [2]: 100 % of control
T/C [3]: 88 % of control
T/C [4]: 88 % of control
T/C (dose: 125.0 micrograms/kg/injection, schedule: Q01DX010 (ip), vehicle: saline): 88 % of control
T/C (dose: 500.0 micrograms/kg/injection, schedule: Q01DX010 (ip), vehicle: saline): 111 % of control
T/C (dose: 1000.0 micrograms/kg/injection, schedule: Q01DX010 (ip), vehicle: saline): 116 % of control

CS(=O)(=O)OCCN(CCOS(C)(=O)=O)c1ccc(N=O)cc1
T/C [1]: 121 % of control
T/C [3]: 90 % of control and 94 % of control

CCN(CC)CCNc1ccc(C)c2sc3ccccc3c(=O)c12
T/C [5]: 110 % of control
T/C [6]: 205 % of control
T/C (dose: 51.0 mg/kg/injection, schedule: Q01DX010 (ip), vehicle: saline): 155 % of control
T/C [7]: 180 % of control

Nc1nc(=S)c2ncn(C3OC(CO)C(O)C3O)c2[nH]1 (stereo not given)
T/C [2]: 105 % of control
T/C [3]: 115 % of control
T/C [4]: 118 % of control and 120 % of control
T/C (dose: 8.0 mg/kg/injection, schedule: Q01DX010 (ip), vehicle: saline): 112 % of control and 95 % of control
T/C (dose: 16.0 mg/kg/injection, schedule: Q01DX010 (ip), vehicle: saline): 106 % of control
T/C (dose: 5.0 micrograms/kg/injection, schedule: Q01DX Z (ip), vehicle: carboxymethylcellulose (CMC)): 105 % of control
T/C (dose: 10.0 micrograms/kg/injection, schedule: Q01DX Z (ip), vehicle: carboxymethylcellulose (CMC)): 96 % of control
T/C (dose: 20.0 micrograms/kg/injection, schedule: Q01DX Z (ip), vehicle: carboxymethylcellulose (CMC)): 94 % of control

Nc1c(Br)cc2c(c1Br)Cc1cc([N+](=O)[O-])ccc1-2
T/C (dose: 15.6 mg/kg/injection, schedule: Q01DX010 (ip), vehicle: saline): 122 % of control
T/C (dose: 31.3 mg/kg/injection, schedule: Q01DX010 (ip), vehicle: saline): 116 % of control
T/C (dose: 62.5 mg/kg/injection, schedule: Q01DX010 (ip), vehicle: saline): 111 % of control and 116 % of control
T/C (dose: 125.0 mg/kg/injection, schedule: Q01DX010 (ip), vehicle: saline): 116 % of control and 94 % of control
T/C (dose: 500.0 mg/kg/injection, schedule: Q01DX010 (ip), vehicle: saline): 88 % of control

Nc1ncnc2[nH]ncc12
T/C (dose: 1.5 mg/kg/injection, schedule: Q01DX010 (ip), vehicle: saline): 93 % of control and 100 % of control
T/C [8]: 107 % of control and 100 % of control
T/C [9]: 100 % of control
T/C (dose: 6.25 mg/kg/injection, schedule: Q01DX Z (ip), vehicle: carboxymethylcellulose (CMC)): 92 % of control
T/C [10]: 112 % of control
T/C (dose: 12.5 mg/kg/injection, schedule: Q01DX Z (ip), vehicle: carboxymethylcellulose (CMC)): 94 % of control
T/C (dose: 25.0 mg/kg/injection, schedule: Q01DX Z (ip), vehicle: carboxymethylcellulose (CMC)): 94 % of control

Nc1c(I)cc(I)cc1C(=O)O
T/C [5]: 100 % of control
T/C [6]: 112 % of control and 100 % of control
T/C [7]: 112 % of control and 100 % of control
T/C (dose: 200.0 mg/kg/injection, schedule: Q01DX010 (ip), vehicle: saline): 100 % of control
T/C (dose: 400.0 mg/kg/injection, schedule: Q01DX010 (ip), vehicle: saline): 106 % of control

C[C@H]1C(=O)O[C@@H]2CCN3CC=C(COC(=O)[C@](C)(O)[C@@]1(C)O)[C@H]23
T/C (dose: 0.99 mg/kg/injection, schedule: Q01DX Z (ip), vehicle: carboxymethylcellulose (CMC)): 97 % of control
T/C (dose: 1.88 mg/kg/injection, schedule: Q01DX Z (ip), vehicle: carboxymethylcellulose (CMC)): 94 % of control
T/C (dose: 3.13 mg/kg/injection, schedule: Q01DX010 (ip), vehicle: saline): 100 % of control
T/C [11]: 90 % of control
T/C [12]: 100 % of control
T/C [13]: 121 % of control and 87 % of control
T/C [5]: 115 % of control and 100 % of control
T/C [6]: 94 % of control

N=C(N)c1ccc(Nc2ccc(C(=N)N)cc2)cc1
T/C (dose: 1.6 mg/kg/injection, schedule: Q01DX Z (ip), vehicle: methylcellulose (MC)): 86 % of control
T/C [8]: 100 % of control
T/C [9]: 106 % of control
T/C (dose: 6.25 mg/kg/injection, schedule: Q01DX Z (ip), vehicle: methylcellulose (MC)): 88 % of control
T/C (dose: 6.3 mg/kg/injection, schedule: Q01DX Z (ip), vehicle: methylcellulose (MC)): 90 % of control
T/C [10]: 100 % of control
T/C (dose: 12.5 mg/kg/injection, schedule: Q01DX Z (ip), vehicle: methylcellulose (MC)): 115 % of control
T/C (dose: 24.0 mg/kg/injection, schedule: Q01DX010 (ip), vehicle: saline): 87 % of control
T/C (dose: 25.0 mg/kg/injection, schedule: Q01DX Z (ip), vehicle: methylcellulose (MC)): 87 % of control

[I][Hg][CH2]C1COC([CH2][Hg][I])CO1 (stereo not given)
T/C (dose: 0.95 mg/kg/injection, schedule: Q01DX Z (ip), vehicle: carboxymethylcellulose (CMC)): 97 % of control
T/C (dose: 1.9 mg/kg/injection, schedule: Q01DX Z (ip), vehicle: carboxymethylcellulose (CMC)): 94 % of control
T/C [11]: 90 % of control
T/C [12]: 100 % of control
T/C [13]: 100 % of control
T/C (dose: 15.0 mg/kg/injection, schedule: Q01DX Z (ip), vehicle: carboxymethylcellulose (CMC)): 94 % of control
T/C [5]: 100 % of control
T/C [6]: 88 % of control
